Drawing on ChEMBL document CHEMBL3272342, “Nonsteroidal antiinflammatory agents. 2. Synthesis and biological activity of 2-chloroindolecarboxylic acids” (J Med Chem, 1977), this text covers Activity and LD50 for five compounds.

Data set [1] concerns Rattus norvegicus. Kind of data set: Antiinflammatory activity in Wistar rat assessed as inhibition of carrageenan-induced edema measured as increase in foot volume at 40 mg/kg, po administered 1 hr prior challenge measured 3 hrs after carrageenin injection (reference value: 187.6 %). It counts as functional. Set-up: scale not given: the % may be the effect or the level left. A general note: Carrageenan injected into the paw causes an acute inflammation.

The nature of data set [2]: Toxicity in ip dosed Swiss mouse. It counts as organism-based. Conditions: in vivo.
The test system of data set [3] is Rattus norvegicus. Kind of data set: Antiinflammatory activity in Wistar rat assessed as inhibition of carrageenan-induced edema measured as increase in foot volume at 20 mg/kg, po administered 1 hr prior challenge measured 7 hrs after carrageenin injection (reference value: 178.8 %). It counts as functional. Further details: scale not given: the % may be the effect or the level left.

For data set [4], the system named is Rattus norvegicus. Put plainly: Antiinflammatory activity in Wistar rat assessed as inhibition of carrageenan-induced edema measured as increase in foot volume at 5 mg/kg, po administered 1 hr prior challenge measured 7 hrs after carrageenin injection (reference value: 178.8 %). Set-up: scale not given: the % may be the effect or the level left. It counts as functional.

The test system of data set [5] is Rattus norvegicus. Put plainly: Antiinflammatory activity in Wistar rat assessed as inhibition of carrageenan-induced edema measured as increase in foot volume at 5 mg/kg, po administered 1 hr prior challenge measured 3 hrs after carrageenin injection (reference value: 187.6 %). It counts as functional. Further details: scale not given: the % may be the effect or the level left.

In data set [6] the test system is Rattus norvegicus. Put plainly: Antiinflammatory activity in Wistar rat assessed as inhibition of carrageenan-induced edema measured as increase in foot volume at 20 mg/kg, po administered 1 hr prior challenge measured 3 hrs after carrageenin injection (reference value: 187.6 %). It counts as functional. Set-up: scale not given: the % may be the effect or the level left.

The test system of data set [7] is Rattus norvegicus. Put plainly: Antiinflammatory activity in Wistar rat assessed as inhibition of carrageenan-induced edema measured as increase in foot volume at 40 mg/kg, po administered 1 hr prior challenge measured 7 hrs after carrageenin injection (reference value: 178.8 %). It counts as functional. Further details: scale not given: the % may be the effect or the level left.

For orientation: LD50 means the dose expected to kill half of the subjects tested. On to `O=C(O)c1c(Cl)[nH]c2ccccc12`, for which the Activity in the data set with Rattus norvegicus [1] worked out at 156.4%; in the data set with Rattus norvegicus [3], 153.5%; in the data set on Rattus norvegicus [4], 143.4%; in the data set with Rattus norvegicus [5] it was 153.1%; in the data set on Rattus norvegicus [6], 161.7%; in the data set with Rattus norvegicus [7], 132.1%. Moreover, the 50% lethal dose (LD50) in data set [2] is above 500 mg/kg.

With `Cn1c(Cl)c(C(=O)O)c2ccccc21`, the Activity worked out at 148.3% in the data set on Rattus norvegicus [1]; 133.8% in the data set with Rattus norvegicus [3]; 133.3% in the data set with Rattus norvegicus [4]; 145.1% with Rattus norvegicus [5]; 146.5% with Rattus norvegicus [6]; 150.7% in the data set with Rattus norvegicus [7]. The same compound gave an LD50 in data set [2] above 500 mg/kg.

For `O=C(O)c1c(Cl)n(-c2ccccc2)c2ccccc12`, the Activity in the data set with Rattus norvegicus [1] is reported as 173.8%; with Rattus norvegicus [3], 130.1%; in the data set with Rattus norvegicus [4], 151.4%; in the data set on Rattus norvegicus [5] it was 159.8%; in the data set on Rattus norvegicus [6], 149.4%; in the data set on Rattus norvegicus [7] it was 201.1%. For the same compound, the LD50 in data set [2] was above 500 mg/kg.

`O=C(O)Cc1c(Cl)n(-c2ccccc2)c2ccccc12`: the Activity with Rattus norvegicus [1] turned out to be 138%; in the data set with Rattus norvegicus [3], 191.8%; with Rattus norvegicus [4] it was 200.9%; with Rattus norvegicus [5] it was 170.3%; with Rattus norvegicus [6], 165.9%; in the data set on Rattus norvegicus [7], 186.4%. The LD50 in data set [2] was above 500 mg/kg.

In the case of `COc1ccc2c(c1)c(CC(=O)O)c(C)n2C(=O)c1ccc(Cl)cc1` [INDOMETHACIN], the Activity was 106.8% in the data set on Rattus norvegicus [4] and 98.5% with Rattus norvegicus [5].
